Tests used:
[1] = test system: primary rat HSCs; assay: Cell contraction assay (collagen gel); type: cell-based; details: HSCs embedded in collagen gel, treated 48 hrs, contraction monitored after 72 hrs
Description: Primary rat HSCs (day 9, 2-5×10^6 cells/ml) were embedded in a collagen lattice per manufacturer's instructions. Cells were treated with synthetic Rev-erbα ligand SR6452. Collagen gel size change was imaged using a BioSpectrum Imaging System.
(§1) FIGS. 5A-D illustrate that Rev-erbα modulator SR6452 can regulate myofibroblast marker expression and HSC contraction. Primary rat HSCs were cultured from quiescence (day Q) to day 5 (FIG. 5A) or from day 9 to day 12 (FIG. 5B) and treated with Rev-erbα modulator SR6452. qRT-PCR was performed for myofibroblast gene expression. Samples were normalized with 18S rRNA. […] HSCs (day 5) were embedded in a collagen gel and treated as indicated for 48 hrs. Gels were then released from plastic surface and contraction monitored after 72 hrs. Materials used were DMSO (vehicle control), SR6452, Rev-erb modulator; and BDM (2,3-Butanedione monoxime), myosin inhibitor.

[2] = test system: LX-2 cells; assay: Response of LX-2 cells to Rev-erb agonist, with or without Rev-erbα overexpression; type: cell-based, human
Description: Primary rat HSCs were isolated via standard pronase-collagenase digestion and subsequent density gradient centrifugation. LX-2 cells were treated with adipogenic mixture (MDI), 5 ng/ml of recombinant transforming growth factor-beta (TGFβ), or plated on Matrigel™ (growth condition which promotes HSC quiescence) for various time points. Gene expression was determined by RealTime PCR and Western blot. Immunocytochemistry followed by confocal microscopy was used to determine sub-cellular localization. A Rev-erb DNA binding domain (DBD) mutant was produced by standard molecular cloning. LX-2 cells were transfected with expression vectors or controls using Fugene®HD.

[3] = test system: primary rat HSCs; assay: Myofibroblast marker expression and morphology (qRT-PCR, αSMA immunocytochemistry); type: cell-based
Description: (§2) A series of experiments were conducted to determine the functional role of Rev-erbα in HSC transdifferentiation. In these experiments, culture-activated primary rat HSCs and human LX-2 cells were used. To determine the effect of Rev-erbα on HSC transdifferentiation and contraction, cells were treated with a specific synthetic modulator, SR6452 (10 μM). mRNA and protein expression were determined by qRT-PCR and Western blot, respectively. Changes in cellular morphology, Rev-erb expression/localization and αSMA expression were observed by confocal microscopy. Additionally, cell contractility was assessed.
(§3) mRNA expression was normalized to 18S rRNA.
Prior to transfection, culture-activated HSCs (for varying days of activation) were seeded onto glass coverslips. Cells were fixed with 4% paraformaldehyde and stained with anti-αSMA antibody, a marker of HSC activation. Cells were imaged using a Zeiss confocal microscope. The fluorescence indicates Rev-erb or αSMA expression.
as §1

[4] = biological target: T1, Rev-erbα (Homo sapiens, UniProt P20393); details: cited from earlier work
T1 sequence (P20393 1-614): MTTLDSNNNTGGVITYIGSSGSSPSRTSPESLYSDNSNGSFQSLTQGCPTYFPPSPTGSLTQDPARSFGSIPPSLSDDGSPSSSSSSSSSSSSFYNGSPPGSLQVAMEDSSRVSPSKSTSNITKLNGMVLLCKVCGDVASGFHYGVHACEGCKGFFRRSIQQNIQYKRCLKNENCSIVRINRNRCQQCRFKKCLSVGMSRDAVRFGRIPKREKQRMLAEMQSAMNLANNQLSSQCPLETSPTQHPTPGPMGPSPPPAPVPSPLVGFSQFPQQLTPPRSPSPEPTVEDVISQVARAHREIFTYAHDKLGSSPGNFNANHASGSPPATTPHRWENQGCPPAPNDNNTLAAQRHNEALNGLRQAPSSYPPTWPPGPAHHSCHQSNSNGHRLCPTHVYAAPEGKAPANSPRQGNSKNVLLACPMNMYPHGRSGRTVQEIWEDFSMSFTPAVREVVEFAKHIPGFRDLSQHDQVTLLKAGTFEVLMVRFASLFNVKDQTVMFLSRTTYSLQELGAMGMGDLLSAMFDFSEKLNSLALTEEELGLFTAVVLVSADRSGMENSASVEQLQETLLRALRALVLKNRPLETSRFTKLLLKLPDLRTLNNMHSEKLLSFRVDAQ

[5] = test system: primary rat HSCs; assay: ECM gene expression by qRT-PCR in primary HSCs; type: cell-based; details: SR6452 10 μM, day Q to day 5 or day 9 to day 12
Description: as §2
(§4) Primary rat HSCs were isolated by pronase/collagenase perfusion digestion followed by density gradient centrifugation with Optiprep. Media was replaced every other day to replenish Rev-erbα modulator SR6452, which was present at a 10 μM concentration. Cells were treated with MDIR mixture (IBMX, dexamethasone, insulin, rosiglitazone), TGFβ, or DMSO (vehicle). Some experiments were performed with the human HSC cell line, LX-2.
as §3
FIGS. 4A-B illustrate that the Rev-erbα modulator SR6452 can suppress/decrease ECM gene expression. Primary rat HSCs were cultured from quiescence (day Q) to day 5 (FIG. 4A) or from day 9 to day 12 (FIG. 4B) and treated with Rev-erbα modulator SR6452. qRT-PCR was performed to determine ECM gene expression. DMSO was used as the vehicle control, while SR6452 was used as the Rev-erbα modulator.

[6] = test system: primary rat HSCs; assay: Adipogenesis in culture-activated primary HSCs (Oil Red O staining, qRT-PCR of adipogenic factors); type: cell-based
Description: as §2, §4, §3
FIGS. 3A-B illustrates that modulation of Rev-erbα activity can regulate adipogenesis. Primary HSCs were culture-activated for 5 days (A) or 15 days (B). Cells were treated with vehicle (DMSO, open bar), or the Rev-erbα modulator SR6452 ([…], purple bar) for the days indicated. The medium was changed every 48 hrs. FIG. 3A provides a chart summarizing the amount of PPARγ, SREBP1, and Lep mRNA on day 5.

[7] = test system: CCl4-induced liver fibrosis; assay: CCl4-induced liver fibrosis mouse model (herovici histology, qRT-PCR of whole liver); type: in vivo
Description: Male C57BL/6 mice (age 9 weeks) were injected intraperitoneally with carbon tetrachloride (CCl4) in sterile olive oil (1 μl CCl4/g body weight) twice a week for 5 weeks. Three weeks after initiation of CCl4 treatment, SR9009 (EMD Millipore, dissolved in DMSO) was administered 5 times a week at a dose of 0.1 mg/g body weight for two weeks. Mice were sacrificed 72 hours after the last dose of SR9009 and livers were harvested for further analysis. For histology studies, livers of the right and left lobes were fixed in 10% formalin, embedded in paraffin, sectioned, and stained with herovici to detect collagen deposition. For gene expression studies, total RNA was extracted from whole liver homogenates, and qRT-PCR performed to detect various markers, including αSMA, Col1α1, Col1α2, tenascin C, and connective tissue growth factor.

[8] = test system: Rev-erbα; assay: Rev-erbα protein expression in HSCs under pro- and anti-fibrogenic factors (Western blot); type: cell-based, rat
Description: as §4
FIG. 2B show results from primary HSCs that were treated with pro-fibrogenic factor TGFβ (5 ng/ml) or myosin inhibitors blebbistatin (Bleb) or BDM (2,3-Butanedione monoxime) for 48 hrs. Cells were harvested for protein and Western blots performed to detect Rev-erbα.

[9] = SR6452 10 μM, mRNA by qRT-PCR, day 5
[10] = qRT-PCR whole liver, CCl4 + SR9009 0.1 mg/g

CC(C)(C)OC(=O)CN(Cc1ccc(Cl)cc1)Cc1ccc([N+](=O)[O-])s1 [SR6452, 1,1-Dimethylethyl-N-[(4-chlorophenyl)methyl]-N-[(5-nitro-2-thienyl)methyl]) glycinate]
HSC contraction [1]: impeded | response to Rev-erb agonist ([2]; LX-2 cells overexpressing Rev-erbα): sensitive | response to Rev-erb agonist ([2]; LX-2 cells without Rev-erbα overexpression): non-responsive | major regulatory and structural genes controlling myofibroblast contraction ([3]; SR6452 10 μM, qRT-PCR normalized to 18S rRNA): repressive effects | cell morphology ([3]; day 9 HSCs treated 72 hrs, αSMA/DAPI immunocytochemistry): slightly rounded/folded cytoplasm with disoriented actin fibers | effect on HSC activation ([3]; overall conclusion of Example 1): suppressive effect | recruitment of nuclear receptor co-repressor (NCoR) peptide to Rev-erbα [4]: enhances recruitment | EC50 ([4]; read-out: EC50 (synthetic Rev-erb agonist)): 250 nM | Type I collagen expression [5]: significantly down-regulated | fibronectin expression [5]: significantly down-regulated | tenascin C expression [5]: significantly down-regulated | lipid content in activated HSCs ([6]; SR6452 10 μM, Oil Red O, day 15): increased | PPARγ expression [6, 9]: up-regulated | SREBP1 expression [6, 9]: up-regulated | HSC adipogenesis ([6]; exposure of quiescent HSCs): promoted

CCOC(=O)N1CCC(CN(Cc2ccc(Cl)cc2)Cc2ccc([N+](=O)[O-])s2)C1 (stereo not shown) [SR9009]
liver architecture and collagen deposition (herovici stain) ([7]; C57BL/6 mice, CCl4 5 weeks, SR9009 0.1 mg/g 5 times a week for two weeks): essentially normal liver architecture and amount of collagen deposition | CCl4-mediated liver fibrosis ([7]; mice, histological and expression data): effective reverses | Col1α1 expression in liver [7, 10]: down to almost normal levels | Col1α2 expression in liver [7, 10]: down to almost normal levels | αSMA expression in liver [7, 10]: down to almost normal levels

TGFβ
cytoplasmic Rev-erbα ([8]; TGFβ treatment): stabilized | Rev-erbα protein expression ([8]; Western blot, TGFβ 5 ng/ml 48 hrs, MDIR or matrigel through day 4): increased

From US9750718B2, “Methods of treating hepatic fibrosis and associated diseases by regulating Rev-ERB activity” (The Charlotte-Mecklenburg Hospital Authority, priority 2012, dated 2017)
